≈ marks a conversion by molar mass, not a printed value. Calls of active or inactive are those of the source. The calls are words filed in the database; no cut-off is given here.
Tests used:
[1] = tested on: HCT-116; test: Induction of apoptosis in human HCT-116 cells assessed as early apoptotic cells level at 0.05 uM incubated for 48 hrs by annexin V-FITC/propidium iodide staining based flow cytometry (reference value: 2.02%); assay type: functional
[2] = biological target: DNA topoisomerase 2-alpha (Homo sapiens) (UniProt P11388); test: Inhibition of TOP2 (unknown origin) by ethidium bromide staining based gel electrophoresis
Sequence of DNA topoisomerase 2-alpha (Homo sapiens) (P11388 whole entry): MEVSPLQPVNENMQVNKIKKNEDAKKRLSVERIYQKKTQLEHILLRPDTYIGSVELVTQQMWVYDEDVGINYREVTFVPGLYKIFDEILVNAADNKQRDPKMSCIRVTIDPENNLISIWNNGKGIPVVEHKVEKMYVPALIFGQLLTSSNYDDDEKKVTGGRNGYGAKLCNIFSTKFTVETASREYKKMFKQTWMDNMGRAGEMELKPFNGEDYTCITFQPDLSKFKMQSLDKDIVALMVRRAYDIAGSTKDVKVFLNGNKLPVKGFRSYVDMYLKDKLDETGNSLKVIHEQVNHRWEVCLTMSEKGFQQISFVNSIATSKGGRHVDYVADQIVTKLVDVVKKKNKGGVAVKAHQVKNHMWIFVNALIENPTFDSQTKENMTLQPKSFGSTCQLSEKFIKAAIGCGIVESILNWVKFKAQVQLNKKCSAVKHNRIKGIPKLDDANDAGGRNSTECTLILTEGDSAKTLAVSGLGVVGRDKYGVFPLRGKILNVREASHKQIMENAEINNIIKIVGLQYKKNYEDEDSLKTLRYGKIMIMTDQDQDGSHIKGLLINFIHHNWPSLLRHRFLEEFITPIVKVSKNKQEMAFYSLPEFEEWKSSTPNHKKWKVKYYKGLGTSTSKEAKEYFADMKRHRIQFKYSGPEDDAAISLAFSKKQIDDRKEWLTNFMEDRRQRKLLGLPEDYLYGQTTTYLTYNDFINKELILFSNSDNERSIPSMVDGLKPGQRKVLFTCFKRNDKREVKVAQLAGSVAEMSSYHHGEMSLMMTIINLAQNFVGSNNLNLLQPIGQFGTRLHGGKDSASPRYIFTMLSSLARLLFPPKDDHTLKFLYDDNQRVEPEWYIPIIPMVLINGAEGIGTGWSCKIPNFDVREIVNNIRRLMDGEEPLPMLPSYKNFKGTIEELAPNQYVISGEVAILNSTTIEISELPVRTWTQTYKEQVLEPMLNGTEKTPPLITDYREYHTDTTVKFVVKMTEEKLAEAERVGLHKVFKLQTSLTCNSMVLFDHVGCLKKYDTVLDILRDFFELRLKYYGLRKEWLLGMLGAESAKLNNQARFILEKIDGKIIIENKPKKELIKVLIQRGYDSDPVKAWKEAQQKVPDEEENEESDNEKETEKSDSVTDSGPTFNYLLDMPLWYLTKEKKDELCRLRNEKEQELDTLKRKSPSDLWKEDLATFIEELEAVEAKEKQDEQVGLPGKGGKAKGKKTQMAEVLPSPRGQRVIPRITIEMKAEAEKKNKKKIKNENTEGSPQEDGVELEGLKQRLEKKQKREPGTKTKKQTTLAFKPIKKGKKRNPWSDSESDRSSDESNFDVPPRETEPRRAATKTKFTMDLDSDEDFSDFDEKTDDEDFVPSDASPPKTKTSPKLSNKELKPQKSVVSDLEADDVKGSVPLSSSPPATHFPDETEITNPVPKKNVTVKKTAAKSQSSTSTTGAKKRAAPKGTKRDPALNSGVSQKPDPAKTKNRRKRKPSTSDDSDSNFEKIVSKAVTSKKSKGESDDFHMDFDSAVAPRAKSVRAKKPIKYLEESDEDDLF

[3] = tested on: HCT-116; test: Induction of apoptosis in human HCT-116 cells assessed as early apoptotic cells level at 0.1 uM incubated for 48 hrs by annexin V-FITC/propidium iodide staining based flow cytometry (reference value: 2.02%); assay type: functional
[4] = tested on: HCT-116; test: Induction of apoptosis in human HCT-116 cells assessed as early apoptotic cells level at 0.5 uM incubated for 48 hrs by annexin V-FITC/propidium iodide staining based flow cytometry (reference value: 2.02%); assay type: functional
[5] = tested on: HCT-116; test: Induction of apoptosis in human HCT-116 cells assessed as late apoptotic cells level at 0.5 uM incubated for 48 hrs by annexin V-FITC/propidium iodide staining based flow cytometry (reference value: 1.87%); assay type: functional
[6] = Toxicity in BALB/c nude mouse xenografted with human HCT-116 cells assessed as effect on body weight at 60 mg/kg, po bid for 21 days relative to control; assay type: organism-based; conditions: in vivo, 504 h, time 21 day
[7] = tested on: HCT-116; test: Induction of apoptosis in human HCT-116 cells assessed as upregulation of Bax expression at 0.2 to 5 uM measured after 24 hrs by Western blot analysis; assay type: functional, cell-based; conditions: dose 0.2-5 µM
[8] = tested on: HCT-116; test: Antitumor activity against human HCT-116 cells xenografted in BALB/c nude mouse assessed as inhibition of tumor growth at 60 mg/kg, po BID administered for 21 days measured by caliper relative to control; assay type: functional; conditions: HCT-116, po, 504 h, time 21 day, read-out: TGI
[9] = tested on: A549; test: Antitumor activity against human A549 cells xenografted in BALB/c nude mouse assessed as inhibition of tumor growth at 150 mg/kg, po BID for 14 days relative to control; assay type: functional; conditions: 336 h, time 14 day, read-out: TGI
[10] = Toxicity in BALB/c nude mouse xenografted with human HCT-116 cells assessed as effect on body weight at 150 mg/kg, po bid for 21 days relative to control; assay type: organism-based; conditions: in vivo, 504 h, time 21 day
[11] = tested on: HCT-116; test: Induction of apoptosis in human HCT-116 cells assessed as downregulation of Bcl-2 expression at 0.2 to 5 uM measured after 24 hrs by Western blot analysis; assay type: functional, cell-based; conditions: dose 0.2-5 µM
[12] = tested on: HCT-116; test: Antitumor activity against human HCT-116 cells xenografted in BALB/c nude mouse assessed as inhibition of tumor growth at 150 mg/kg, po BID measured by caliper relative to control; assay type: functional; conditions: HCT-116, po, read-out: TGI
[13] = tested on: HCT-116; test: Antitumor activity against human HCT-116 cells xenografted in iv dosed BALB/c nude mouse assessed as inhibition of tumor growth measured by caliper relative to control; assay type: functional
[14] = tested on: HCT-116; test: Induction of apoptosis in human HCT-116 cells assessed as increase in caspase-9 level at 0.2 to 5 uM measured after 24 hrs by Western blot analysis; assay type: functional, cell-based; conditions: dose 0.2-5 µM
[15] = tested on: MDA-MB-231; test: Antiproliferative activity against human MDA-MB-231 cells assessed as inhibition of cell proliferation incubated for 72 hrs by CCK8 assay; assay type: functional, cell-based; conditions: MDA-MB-231, 72 h
[16] = tested on: HCT-116; test: Cell cycle arrest in human HCT-116 cells assessed as accumulation at G2 phase at 0.1 uM incubated for 24 hrs by propidium iodide staining based flow cytometric analysis (Rvb =20 %); assay type: functional
[17] = tested on: HCT-116; test: Induction of apoptosis in human HCT-116 cells assessed as increase in caspase-3 level at 0.2 to 5 uM measured after 24 hrs by Western blot analysis; assay type: functional, cell-based; conditions: dose 0.2-5 µM
[18] = Toxicity in BALB/c nude mouse xenografted with human A549 cells assessed as effect on body weight at 150 mg/kg, po bid for 14 days; assay type: organism-based; conditions: in vivo, 336 h, time 14 day
[19] = Toxicity in BALB/c nude mouse xenografted with human A549 cells assessed as morphological changes in liver at 150 mg/kg, po bid by H&E staining based light microscopic analysis; assay type: organism-based; conditions: in vivo
[20] = biological target: Tubulin; test: Inhibition of tubulin polymerization (unknown origin); assay type: protein-complex assay, Homo sapiens
[21] = tested on: HCT-116; test: Induction of apoptosis in human HCT-116 cells assessed as late apoptotic cells level at 0.05 uM incubated for 48 hrs by annexin V-FITC/propidium iodide staining based flow cytometry (reference value: 1.87%); assay type: functional
[22] = Solubility of the compound in PBS buffer at pH 7.4; assay type: physicochemical
[23] = biological target: T1, DNA topoisomerase 1 (Homo sapiens) (UniProt P11387); test: Inhibition of TOP1 (unknown origin) assessed as decrease in relaxation of supercoiled DNA using pBR322 plasmid DNA by ethidium bromide staining based gel electrophoresis
T1 sequence (whole entry): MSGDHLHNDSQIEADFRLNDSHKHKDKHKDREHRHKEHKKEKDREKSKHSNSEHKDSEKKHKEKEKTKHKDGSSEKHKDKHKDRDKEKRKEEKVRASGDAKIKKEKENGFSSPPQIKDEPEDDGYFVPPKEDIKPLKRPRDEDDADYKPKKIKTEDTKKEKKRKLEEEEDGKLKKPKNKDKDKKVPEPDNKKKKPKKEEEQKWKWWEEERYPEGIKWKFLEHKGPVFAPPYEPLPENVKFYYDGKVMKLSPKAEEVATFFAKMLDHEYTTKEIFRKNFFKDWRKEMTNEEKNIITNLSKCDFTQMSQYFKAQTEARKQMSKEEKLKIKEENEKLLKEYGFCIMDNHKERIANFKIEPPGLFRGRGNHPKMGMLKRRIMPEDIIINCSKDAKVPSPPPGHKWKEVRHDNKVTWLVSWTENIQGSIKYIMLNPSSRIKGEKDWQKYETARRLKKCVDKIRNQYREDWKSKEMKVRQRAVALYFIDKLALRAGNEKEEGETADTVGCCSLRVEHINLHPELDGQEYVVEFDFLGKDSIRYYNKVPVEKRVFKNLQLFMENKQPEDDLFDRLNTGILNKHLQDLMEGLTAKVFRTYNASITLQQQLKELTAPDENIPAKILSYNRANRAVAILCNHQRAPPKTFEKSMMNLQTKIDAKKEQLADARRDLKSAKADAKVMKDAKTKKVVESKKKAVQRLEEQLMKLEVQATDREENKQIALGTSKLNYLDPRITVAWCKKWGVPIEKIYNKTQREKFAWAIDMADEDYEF

[24] = Solubility of the compound in double distilled water; assay type: physicochemical
[25] = tested on: HCT-116; test: Cell cycle arrest in human HCT-116 cells assessed as accumulation at S phase at 0.5 uM incubated for 24 hrs by propidium iodide staining based flow cytometric analysis (Rvb =44.3 %); assay type: functional
[26] = Toxicity in BALB/c nude mouse xenografted with human A549 cells assessed as morphological changes in kidney at 150 mg/kg, po bid by H&E staining based light microscopic analysis; assay type: organism-based; conditions: in vivo
[27] = tested on: HCT-116; test: Antitumor activity against human HCT-116 cells xenografted in BALB/c nude mouse assessed as necrosis at 150 mg/kg, po bid by H&E staining based light microscopic analysis; assay type: functional, organism-based

inhibition [2]: Dose-Dependent Effect
IC50 [15]: 0.65 µM
IC50 [20]: 31.6 µM
solubility [22]: > 1 mg/mL
inhibition [23]: Dose-Dependent Effect
solubility [24]: 0.036 mg/mL (≈ 90.1 µM)
Compound: CN1c2ccccc2C(=O)N2CCc3c([nH]c4ccc(OP(=O)(O)O)cc34)C21 (configuration not stated)
Activity [1]: 15.1%
Activity [3]: 38.55%
Activity [4]: 44.04%
Activity [5]: 13.49%
Activity [6]: Non-Toxic
Activity [7]: Active
inhibition in vivo at 60 mg/kg [8]: 48%
inhibition in vivo at 150 mg/kg [9]: 59%
Activity [10]: Toxic
Activity [11]: Active
inhibition in vivo at 150 mg/kg [12]: 48%
TGI [13]: 45%
Activity [14]: Active
Activity [16]: 53.4%
Activity [17]: Active
Activity [18]: Non-Toxic
Activity [19]: Non-Toxic
Activity [21]: 8.45%
Activity [25]: 30.4%
Activity [26]: Non-Toxic
Activity [27]: Active

From ChEMBL document CHEMBL4837225, “Water-soluble derivatives of evodiamine: Discovery of evodiamine-10-phosphate as an orally active antitumor lead compound” (Eur J Med Chem, 2021)
